In patent publication US5783599A, “Methods of treating cancer and viral infections with 5-iodo-6-amino-and 5-iodo-6-nitroso-1 2-benzopyrones” (priority 1996, dated 1998):

Key:
GC1 III cells = test: DNA synthesis ([3H]deoxyadenosine incorporation) in CG1 III cells; assay type: cell-based; conditions: Homo sapiens, 5-I-6-ABP 0.05 mM, 72 h, N=5
Source text: (§1) In this study, the following cell lines were used. Cell line CG I, a non-tumorigenic hybrid of HeLa cells with normal human fibroblasts, and its is tumorigenic revertant counterpart, CG1 III, as described in Science, 215:252 (1982). These cells were obtained from UC Irvine. […] HEp-2 human epidermoid carcinoma cells were provided by Dr. L. Aurelian (University of Maryland). E-Ras cells were-obtained from University of Cincinnati and represent an endothelial cell line transfected with pSV2neo plasmid as described in Proc. Natl. Acad. Sci., 76:1373 (1979). This cell line contains several copies of the activated human Ha-ras oncogene.
Cells were seeded to 2 cm^2 wells of Falcon tissue culture plates at a density of 6000±650 cells per well. Inhibitors were added to the seeding suspensions from stock solutions of 100 mM 6-ABP in water or 50 mM 5-1-6-ABP in dimethylsulfoxide (DMSO). […] Growth media were Dulbeccos MEM (lines #1 and 2), and Dulbeccols Modified Eagle's Medium, containing 10% fetal bovine serum and penicillin (100 μg/ml) plus streptomycin (100 μg/ml). […] Cells were then lysed in 500 μl of 0.06M NaOH and the acid precipitable radioactivity was determined.

HIV [1] = test: HIV replication by p24 formation (ELISA) in cell culture; assay type: cell-based
HIV [2] = test: Cytopathogenic effect of HIV on AA-2 cells; assay type: cell-based
AA-2 or MT-2 cells = test: Cell count and viability of AA-2 and MT-2 cells; assay type: cell-based, human
Procedure: The effects of 5-I-6-ABP treatment of AA-2 and MT-2 cells was directly analyzed by cell count and viability tests including cloning efficiency and trypan blue uptake. The AA2 or MT-2 cell culture having initial cell count per well 0.5×10^5 was submitted to treatment with 3 mM of 6-ABP and or with 0.1 mM of 5-I-6-ABP and compared to untreated cell culture. The cells were counted 4 days after the treatment with 5-I-6-ABP and 6-ABP.

[3] = Toxicity after intraperitoneal administration; assay type: in vivo, rat
Procedure: Toxicological tests administering 5-I-6-ABP to mice were performed under the following conditions.
[…] […] […] In in vitro experiments, it was shown that at the concentration 100 mg/kg corresponding to 0.35 mM, the antiviral effect is maximal.

[4] = Passage of blood brain barrier; conditions: in vivo
[5] = system: malignant cell proliferation; test: Malignant cell proliferation / cytostatic activity in cell cultures, overall; assay type: cell-based
Source text: as §1
Cells were seeded to 2 cm^2 wells of Falcon tissue culture plates at a density of 6000±650 cells per well. Inhibitors were added to the seeding suspensions from stock solutions of 100 mM 6-ABP in water or 50 mM 5-1-6-ABP in dimethylsulfoxide (DMSO). […] Growth media were Dulbeccos MEM (lines #1 and 2), and Dulbeccols Modified Eagle's Medium, containing 10% fetal bovine serum and penicillin (100 μg/ml) plus streptomycin (100 μg/ml). After incubation for 72 hours at 37° C. in a 5% CO2 humidified atmosphere, incorporation of [^3 H] deoxyadenosine (ICN, 18 Ci/mmol) into DNA was tested as follows: [^3 H] deoxyadenosine (450,000 dpm in 40 μl) of medium was added per well (each containing 600 μl of medium) and incubation at 37° C. was continued for 1 hour, followed by removal of the medium and rinsing of the wells 3 times with phosphate-buffered saline. Cells were then lysed in 500 μl of 0.06M NaOH and the acid precipitable radioactivity was determined.

Nc1ccc2oc(=O)ccc2c1I [5-I-6-ABP, 5-iodo-6-amino-1,2-benzopyrone]
inhibition at 50 µM (GC1 III cells): -64.4% | p24 protein formation, effect relative to 3 mM 6-ABP (HIV [1]): nearly as effective | suppressing effect on p24 generation (HIV [1]): almost equivalent suppressing effect on p24 generation | cytopathogenic effect of HIV, effectiveness relative to 6-ABP (HIV [2]): nearly as effective | cytotoxicity (AA-2 or MT-2 cells): does not involve cytotoxicity | effect on cell proliferation (AA-2 or MT-2 cells; 3 mM 6-ABP, 0.1 mM 5-I-6-ABP, 4 days): inhibitory effect on cell proliferation | toxic effects, chronic ([3]; chronic administration, 100 and 500 mg/kg, several weeks): did not show any toxic effects | toxic effects, subacute ([3]; rats, i.p., 100 and 59 mg/kg in DMSO once a day, four days): no apparent toxic effects | blood brain barrier passage [4]: appears to cross the blood brain barrier | cellular toxicity of cytostatic effect [5]: do not involve cellular toxicity | replication of tumorigenic cell types ([5]; 6 cell lines, Table 1): profoundly inhibited | potency relative to 6-ABP ([5]; biological action spectrum, vs 6-ABP): 10-50 times | antitumor activity relative to 6-ABP ([5]; vs 6-ABP): at least 10 times
